According to patent US20230293526A1, “METHOD FOR TREATING CANCER WITH A REVERSE TRANSCRIPTASE INHIBITOR” (PrimeFour Therapeutics, Inc., priority 2020, published 2023):

System: cancer cell lines
Experiment: Cancer cell proliferation activity of representative nucleosides, CellTiterGlo 72 h (Example 7, Tables 8 and 9)
Assay type: cell-based
Description: Dose response relationships on cell proliferation was assessed for representative nucleosides on cancer cell lines. Briefly, compound treatment of cells started one day after seeding with a final DMSO concentration of 0.1%, and was performed by nanodrop-dispensing using a Tecan Dispenser. 0.1% DMSO (solvent) and Staurosporine (10 μM) served as high control (100% viability) and low control (0% viability), respectively. Cells were cultured in the appropriate media. For the assays, cells were seeded in white cell culture-treated flat and clear bottom multiwell plates and incubated at 37° C. overnight before compound was added. After incubation for 72 h at 37° C. at 5% or 10% CO2 dependent on the medium, cell plates were equilibrated to room temperature for one hour, CellTiterGlo reagent (Promega) was added and luminescence was measured approximately an hour later using a luminometer.
Raw data were converted into percent cell viability relative to the high and low control, which were set to 100% and 0%, respectively.

Cc1cn([C@H]2C[C@H](O)[C@@](C#N)(CO)O2)c(=O)[nH]c1=O [compound 31]
IC50 (72 h, 5637, 72 h (Table 9)): > 50 µM | IC50 (72 h, CLS439, 72 h (Table 9)): > 50 µM | IC50 (72 h, HS729, 72 h (Table 9)): > 50 µM | IC50 (72 h, J82, 72 h (Table 9)): 4.88 µM | IC50 (72 h, JAR, 72 h (Table 9)): > 50 µM | IC50 (72 h, MT3, 72 h (Table 9)): 3.77 µM | IC50 (72 h, PC3, 72 h (Table 9)): > 50 µM | IC50 (72 h, RD, 72 h (Table 9)): > 50 µM | IC50 (72 h, T24, 72 h (Table 9)): 3.01 µM | IC50 (Homo sapiens, 22Rv1, 72 h, 22RV1, 72 h (Table 9)): 1.06 µM | IC50 (Homo sapiens, 786-0, 72 h, 786O, 72 h (Table 9)): > 50 µM | IC50 (Homo sapiens, A204, 72 h, A204, 72 h (Table 9)): 2.55 µM | IC50 (Homo sapiens, A549, 72 h, A549, 72 h (Table 9)): > 50 µM | IC50 (Homo sapiens, A673, 72 h, A673, 72 h (Table 9)): 5.25 µM | IC50 (Homo sapiens, A2780, 72 h, A2780, 72 h (Table 9)): > 50 µM | IC50 (Homo sapiens, A-375, 72 h, A375, 72 h (Table 9)): > 50 µM | IC50 (Homo sapiens, A-431, 72 h, A431, 72 h (Table 9)): 2.6 µM | IC50 (Homo sapiens, ACHN, 72 h, 72 h (Table 9)): 4.02 µM | IC50 (Homo sapiens, ASPC1, 72 h, ASPC1, 72 h (Table 9)): > 50 µM | IC50 (Homo sapiens, BT-20, 72 h, BT20, 72 h (Table 9)): > 50 µM | IC50 (Homo sapiens, BXPC-3, 72 h, BXPC3, 72 h (Table 9)): 6.34 µM | IC50 (Homo sapiens, C-33-A, 72 h, C33A, 72 h (Table 9)): 1.75 µM | IC50 (Homo sapiens, CAKI-1, 72 h, CAKI1, 72 h (Table 9)): > 50 µM | IC50 (Homo sapiens, COLO 205, 72 h, COLO205, 72 h (Table 9)): > 50 µM | IC50 (Homo sapiens, COLO-678, 72 h, COLO678, 72 h (Table 9)): > 50 µM | IC50 (Homo sapiens, Ca-Ski, 72 h, CASKI, 72 h (Table 9)): > 50 µM | IC50 (Homo sapiens, Caco-2, 72 h, CACO2, 72 h (Table 9)): > 50 µM | IC50 (Homo sapiens, Calu-6, 72 h, CALU6, 72 h (Table 9)): > 50 µM | IC50 (Homo sapiens, DLD-1, 72 h, DLD1, 72 h (Table 9)): 4.59 µM | IC50 (Homo sapiens, DU-145, 72 h, DU145, 72 h (Table 9)): 5.46 µM | IC50 (Homo sapiens, EFO-21, 72 h, EFO21, 72 h (Table 9)): > 50 µM | IC50 (Homo sapiens, EJ-28, 72 h, EJ28, 72 h (Table 9)): > 50 µM | IC50 (Homo sapiens, Granta-519, 72 h, GRANTA-519, 72 h (Table 9)): 3.15 µM | IC50 (Homo sapiens, HCT-15, 72 h, HCT15, 72 h (Table 9)): > 50 µM | IC50 (Homo sapiens, HCT-116, 72 h, HCT116, 72 h (Table 9)): > 50 µM | IC50 (Homo sapiens, HEK293, 72 h, HEK293, 72 h (Table 9)): > 50 µM | IC50 (Homo sapiens, HL-60, 72 h, HL-60, 72 h (Table 9)): > 50 µM | IC50 (Homo sapiens, HT-29, 72 h, HT29, 72 h (Table 9)): > 50 µM | IC50 (Homo sapiens, HT-1080, 72 h, HT1080, 72 h (Table 9)): > 50 µM | IC50 (Homo sapiens, HeLa, 72 h, 72 h (Table 9)): > 50 µM | IC50 (Homo sapiens, HepG2, 72 h, HEPG2, 72 h (Table 9)): 5.08 µM | IC50 (Homo sapiens, Hs-578T, 72 h, HS578T, 72 h (Table 9)): > 50 µM | IC50 (Homo sapiens, IGROV-1, 72 h, IGROV1, 72 h (Table 9)): > 50 µM | IC50 (Homo sapiens, IMR-90, 72 h, IMR90, 72 h (Table 9)): > 50 µM | IC50 (Homo sapiens, JEG-3, 72 h, JEG3, 72 h (Table 9)): > 50 µM | IC50 (Homo sapiens, JIMT-1, 72 h, JIMT1, 72 h (Table 9)): > 50 µM | IC50 (Homo sapiens, K562, 72 h, K-562, 72 h (Table 9)): > 50 µM | IC50 (Homo sapiens, Kasumi 1, 72 h, KASUMI-1, 72 h (Table 9)): > 50 µM | IC50 (Homo sapiens, L-363, 72 h, L-363, 72 h (Table 9)): > 50 µM | IC50 (Homo sapiens, LoVo, 72 h, 72 h (Table 9)): 3.55 µM | IC50 (Homo sapiens, MCF7, 72 h, MCF7, 72 h (Table 9)): > 50 µM | IC50 (Homo sapiens, MDA-MB-231, 72 h, MDAMB231, 72 h (Table 9)): > 50 µM | IC50 (Homo sapiens, MDA-MB-435, 72 h, MDAMB435, 72 h (Table 9)): > 50 µM | IC50 (Homo sapiens, MDA-MB-436, 72 h, MDAMB436, 72 h (Table 9)): 5.24 µM | IC50 (Homo sapiens, MDA-MB-468, 72 h, MDAMB468, 72 h (Table 9)): > 50 µM | IC50 (Homo sapiens, MG-63, 72 h, MG63, 72 h (Table 9)): > 50 µM | IC50 (Homo sapiens, MHH-ES-1, 72 h, MHHES1, 72 h (Table 9)): 3.07 µM | IC50 (Homo sapiens, MIA PaCa-2, 72 h, MIAPACA2, 72 h (Table 9)): > 50 µM | IC50 (Homo sapiens, MINO, 72 h, 72 h (Table 9)): 3.91 µM | IC50 (Homo sapiens, MV4-11, 72 h, MV4-11, 72 h (Table 9)): 0.38 µM | IC50 (Homo sapiens, NCI-H23, 72 h, NCI-H23, 72 h (Table 9)): 4.05 µM | IC50 (Homo sapiens, NCI-H82, 72 h, NCIH82, 72 h (Table 9)): 5.25 µM | IC50 (Homo sapiens, NCI-H292, 72 h, NCIH292, 72 h (Table 9)): > 50 µM | IC50 (Homo sapiens, NCI-H460, 72 h, NCIH460, 72 h (Table 9)): 2.8 µM | IC50 (Homo sapiens, OVCAR-3, 72 h, OVCAR3, 72 h (Table 9)): > 50 µM | IC50 (Homo sapiens, OVCAR-4, 72 h, OVCAR4, 72 h (Table 9)): > 50 µM | IC50 (Homo sapiens, PANC-1, 72 h, PANC1, 72 h (Table 9)): > 50 µM | IC50 (Homo sapiens, PLC-PRF-5, 72 h, PLCPRF5, 72 h (Table 9)): 5.05 µM | IC50 (Homo sapiens, Panc1005, 72 h, PANC1005, 72 h (Table 9)): > 50 µM | IC50 (Homo sapiens, Ramos, 72 h, 72 h (Table 9)): > 50 µM | IC50 (Homo sapiens, SAOS-2, 72 h, SAOS2, 72 h (Table 9)): > 50 µM | IC50 (Homo sapiens, SF-268, 72 h, SF268, 72 h (Table 9)): 14.6 µM | IC50 (Homo sapiens, SF-295, 72 h, SF295, 72 h (Table 9)): > 50 µM | IC50 (Homo sapiens, SK-BR-3, 72 h, SKBR3, 72 h (Table 9)): 3.44 µM | IC50 (Homo sapiens, SK-HEP1, 72 h, SKHEP1, 72 h (Table 9)): 3.15 µM | IC50 (Homo sapiens, SK-LMS-1, 72 h, SKLMS1, 72 h (Table 9)): 2.88 µM | IC50 (Homo sapiens, SK-MEL-5, 72 h, SKMEL5, 72 h (Table 9)): > 50 µM | IC50 (Homo sapiens, SK-MEL-28, 72 h, SKMEL28, 72 h (Table 9)): > 50 µM | IC50 (Homo sapiens, SK-N-AS, 72 h, SKNAS, 72 h (Table 9)): > 50 µM | IC50 (Homo sapiens, SK-N-SH, 72 h, SKNSH, 72 h (Table 9)): > 50 µM | IC50 (Homo sapiens, SK-OV-3, 72 h, SKOV3, 72 h (Table 9)): > 50 µM | IC50 (Homo sapiens, SNB-75, 72 h, SNB75, 72 h (Table 9)): 4.52 µM | IC50 (Homo sapiens, SU-DHL10, 72 h, SU-DHL-10, 72 h (Table 9)): > 50 µM | IC50 (Homo sapiens, SU-DHL-6, 72 h, SU-DHL-6, 72 h (Table 9)): 3.92 µM | IC50 (Homo sapiens, SW-620, 72 h, SW620, 72 h (Table 9)): > 50 µM | IC50 (Homo sapiens, TE-671, 72 h, TE671, 72 h (Table 9)): > 50 µM | IC50 (Homo sapiens, THP-1, 72 h, THP-1, 72 h (Table 9)): 2.49 µM | IC50 (Homo sapiens, U2OS, 72 h, 72 h (Table 9)): > 50 µM | IC50 (Homo sapiens, U-87 MG, 72 h, U87MG, 72 h (Table 9)): 5.23 µM | IC50 (Homo sapiens, UMUC3, 72 h, UMUC3, 72 h (Table 9)): > 50 µM | IC50 (Homo sapiens, UO-31, 72 h, UO31, 72 h (Table 9)): > 50 µM | IC50 (Homo sapiens, WSU-NHL, 72 h, 72 h (Table 9)): 4.26 µM | IC50 (NCI-H358M, 72 h, NCIH358M, 72 h (Table 9)): > 50 µM | IC50 (PBMC, 72 h, 72 h (Table 9)): > 50 µM | IC50 (RD-ES, 72 h, RDES, 72 h (Table 9)): 3.65 µM
